Assay results reported in patent US9284333B2, “Fused pyrroledicarboxamides and their use as pharmaceuticals” (SANOFI, priority 2012, dated 2016).

target: Human TASK-1 channels (Homo sapiens (Human), UniProt O14649); experiment: Determination of the activity on the TASK-1 channel in Xenopus oocytes (two-microelectrode voltage clamp); format: cell-based; conditions: compound concentration 5 μM
Procedure, shortened: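 Xenopus oocytes were injected with human TASK-1 cRNA and recorded two days later by two-microelectrode voltage clamp, holding at −90 mV with 500 ms steps to 40 mV. Superfusion used ND96, pH 7.4, at room temperature, with rising compound concentrations; percentage inhibition of control current was fitted to a dose-response curve for IC50.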

Chain of Human TASK-1 channels (O14649 whole entry, the tested form may be a part): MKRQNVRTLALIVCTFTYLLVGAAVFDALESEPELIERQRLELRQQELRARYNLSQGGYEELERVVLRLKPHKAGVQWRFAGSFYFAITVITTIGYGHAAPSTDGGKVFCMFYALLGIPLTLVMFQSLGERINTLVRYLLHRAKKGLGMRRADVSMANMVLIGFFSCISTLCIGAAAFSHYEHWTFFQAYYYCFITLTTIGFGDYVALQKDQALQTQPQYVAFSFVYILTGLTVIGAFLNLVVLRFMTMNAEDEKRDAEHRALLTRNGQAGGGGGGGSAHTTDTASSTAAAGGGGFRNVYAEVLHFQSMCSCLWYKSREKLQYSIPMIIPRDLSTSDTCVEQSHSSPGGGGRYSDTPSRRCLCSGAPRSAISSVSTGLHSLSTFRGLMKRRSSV

TASK-1 inhibition [%] at 5 μM [%]	inhibition at 5 µM [%]	Compound
91	–	3,4-Dihydro-1H-pyrrolo[2,1-c][1,4]oxazine-6,8-dicarboxylic acid 6-[(1H-indol-6-ylmethyl)-amide] 8-[((R)-1-phenyl-propyl)-amide] [16je]
–	69	CC[C@@H](NC(=O)c1cc(C(=O)N2CCC[C@@H]2C)n2c1COCC2)c1cncc(Cl)c1 [16cj, 6-((S)-2-Methyl-pyrrolidine-1-carbonyl)-3,4-dihydro-1H-pyrrolo[2,1-c][1,4]oxazine-8-carboxylic acid [(R)-1-(5-chloro-pyridin-3-yl)-propyl]-amide]
–	36	CC[C@@H](NC(=O)c1cc(C(=O)NCc2cccnn2)n2c1COCC2)c1ccccc1 [16jf, 3,4-Dihydro-1H-pyrrolo[2,1-c][1,4]oxazine-6,8-dicarboxylic acid 8-[((R)-1-phenyl-propyl)-amide] 6-[(pyridazin-3-ylmethyl)-amide]]
–	92	CC[C@@H](NC(=O)c1cc(C(=O)N2CCC[C@H]2c2ccccc2)n2c1CCCC2)c1ccccc1 [16mn, 3-((S)-2-Phenyl-pyrrolidine-1-carbonyl)-5,6,7,8-tetrahydro-indolizine-1-carboxylic acid ((R)-1-phenyl-propyl)-amide]
–	82	CC[C@@H](NC(=O)c1cc(C(=O)N[C@H](CC)c2nccs2)n2c1COCC2)c1ccc(C(F)(F)F)nc1 (racemic) [16pd, 3,4-Dihydro-1H-pyrrolo[2,1-c][1,4]oxazine-6,8-dicarboxylic acid 6-[((R)-1-thiazol-2-yl-propyl)-amide] 8-{[(R)-1-(6-trifluoromethyl-pyridin-3-yl)-propyl]-amide}]

same assay, conditions: human TASK-1 expressed in Xenopus oocytes, room temperature; read-out: IC50 value for TASK-1 inhibition

IC50 [µM]	Compound
0.051	CC[C@@H](NC(=O)c1cc(C(=O)N[C@H](CC)c2ccccc2)n2c1CCCC2)c1ccccc1 [16ma, 5,6,7,8-Tetrahydro-indolizine-1,3-dicarboxylic acid bis-[((R)-1-phenyl-propyl)-amide]]
0.17	CC[C@@H](NC(=O)c1cc(C(=O)NC(C)c2ncccn2)n2c1COCC2)c1ccc(F)cc1Cl (stereo partly drawn) [16np, 3,4-Dihydro-1H-pyrrolo[2,1-c][1,4]oxazine-6,8-dicarboxylic acid 8-{[(R)-1-(2-chloro-4-fluoro-phenyl)-propyl]-amide} 6-[(1-pyrimidin-2-yl-ethyl)-amide]]
0.79	CC[C@@H](NC(=O)c1cc(C(=O)N2CCC[C@@H]2C)n2c1COCC2)c1ccc(C#N)cc1Cl [16bb, 6-((S)-2-Methyl-pyrrolidine-1-carbonyl)-3,4-dihydro-1H-pyrrolo[2,1-c][1,4]oxazine-8-carboxylic acid [(R)-1-(2-chloro-4-cyano-phenyl)-propyl]-amide]
0.21	CC[C@@H](NC(=O)c1cc(C(=O)N2CCCC2)n2c1COCC2)c1ccccc1Cl [16cy, 6-(Pyrrolidine-1-carbonyl)-3,4-dihydro-1H-pyrrolo[2,1-c][1,4]oxazine-8-carboxylic acid [(R)-1-(2-chloro-phenyl)-propyl]-amide]
0.99	CC[C@@H](NC(=O)c1cc(C(=O)N2CCOC[C@@H]2C)c2n1CCOC2)c1ccccc1 [16kh, 8-((S)-3-Methyl-morpholine-4-carbonyl)-3,4-dihydro-1H-pyrrolo[2,1-c][1,4]oxazine-6-carboxylic acid ((R)-1-phenyl-propyl)-amide]
0.56	CC[C@H](NC(=O)c1cc(C(=O)N[C@H](CC)c2ccccc2)c2n1CCOC2)c1ccc(OC)nc1 [16hp, 3,4-Dihydro-1H-pyrrolo[2,1-c][1,4]oxazine-6,8-dicarboxylic acid 6-{[(S)-1-(6-methoxy-pyridin-3-yl)-propyl]-amide} 8-[((R)-1-phenyl-propyl)-amide]]
0.16	CC[C@@H](NC(=O)c1cc(C(=O)N[C@H](CC)c2ccccc2)n2c1COCC2)c1ccccc1 [16i, 3,4-Dihydro-1H-pyrrolo[2,1-c][1,4]oxazine-6,8-dicarboxylic acid bis-[((R)-1-phenyl-propyl)-amide]]
0.22	CC[C@@H](NC(=O)c1cc(C(=O)Nc2cc(C(F)(F)F)ccc2Cl)c2n1CCOC2)c1ccccc1 [16jx, 3,4-Dihydro-1H-pyrrolo[2,1-c][1,4]oxazine-6,8-dicarboxylic acid 8-[(2-chloro-5-trifluoromethyl-phenyl)-amide] 6-[((R)-1-phenyl-propyl)-amide]]
0.65	CC[C@@H](NC(=O)c1cc(C(=O)NCc2c(C)noc2C)n2c1COCC2)c1ccccc1 [16pq, 3,4-Dihydro-1H-pyrrolo[2,1-c][1,4]oxazine-6,8-dicarboxylic acid 6-[(3,5-dimethyl-isoxazol-4-ylmethyl)-amide] 8-[((R)-1-phenyl-propyl)-amide]]
0.18	CCOC(=O)CNC(=O)c1cc(C(=O)N[C@H](CC)c2ccccc2)c2n1CCOC2 [16k, {[8-((R)-1-Phenyl-propylcarbamoyl)-3,4-dihydro-1H-pyrrolo[2,1-c][1,4]oxazine-6-carbonyl]-amino}-acetic acid ethyl ester]
0.14	CC[C@@H](NC(=O)c1cc(C(=O)N2CCC[C@@H]2C)n2c1COCC2)c1c(F)cc(C#N)cc1F [16ba, 6-((S)-2-Methyl-pyrrolidine-1-carbonyl)-3,4-dihydro-1H-pyrrolo[2,1-c][1,4]oxazine-8-carboxylic acid [(R)-1-(4-cyano-2,6-difluoro-phenyl)-propyl]-amide]
0.03	CC[C@@H](NC(=O)c1cc(C(=O)N2CCC[C@@H]2C)n2c1COCC2)c1ccc(Cl)c(Cl)c1 [16ci, 6-((S)-Methyl-pyrrolidine-1-carbonyl)-3,4-dihydro-1H-pyrrolo[2,1-c][1,4]oxazine-8-carboxylic acid [(R)-1-(3,4-dichloro-phenyl)-propyl]-amide]
0.55	CCC(NC(=O)c1cc(C(=O)N2CCC[C@@H]2C)n2c1COCC2)c1ccc(C(C)(F)F)cc1 (stereo partly drawn) [16bc, 6-((S)-2-Methyl-pyrrolidine-1-carbonyl)-3,4-dihydro-1H-pyrrolo[2,1-c][1,4]oxazine-8-carboxylic acid {1-[4-(1,1-difluoro-ethyl)-phenyl]-propyl}-amide]
0.19	CC[C@@H](NC(=O)c1cc(C(=O)N2CCC[C@@H]2C)n2c1COCC2)c1ccc(Cl)cc1 [16pg, 6-((S)-2-Methyl-pyrrolidine-1-carbonyl)-3,4-dihydro-1H-pyrrolo[2,1-c][1,4]oxazine-8-carboxylic acid [(R)-1-(4-chloro-phenyl)-propyl]-amide]
0.065	CC[C@@H](NC(=O)c1cc(C(=O)N[C@H](CC)c2ncccn2)c2n1CCOC2)c1ccc(C(F)(F)F)cc1 [16lb, 3,4-Dihydro-1H-pyrrolo[2,1-c][1,4]oxazine-6,8-dicarboxylic acid 8-[((R)-1-pyrimidin-2-yl-propyl)-amide] 6-{[(R)-1-(4-trifluoromethyl-phenyl)-propyl]-amide}]
2.5	CC[C@@H](NC(=O)c1cc(C(=O)NCc2nnn(C)n2)n2c1COCC2)c1ccccc1 [16rs, 3,4-Dihydro-1H-pyrrolo[2,1-c][1,4]oxazine-6,8-dicarboxylic acid 6-[(2-methyl-2H-tetrazol-5-ylmethyl)-amide] 8-[((R)-1-phenyl-propyl)-amide]]
0.08	CC[C@@H](NC(=O)c1cc(C(=O)NCC2CC2)n2c1COCC2)c1ccccc1Cl [16ld, 3,4-Dihydro-1H-pyrrolo[2,1-c][1,4]oxazine-6,8-dicarboxylic acid 8-{[(R)-1-(2-chloro-phenyl)-propyl]-amide} 6-cyclopropylmethyl-amide]
0.92	CC[C@@H](NC(=O)c1cc(C(=O)N2CCCC2c2ccn(C)n2)n2c1COCC2)c1ccccc1 (stereo partly drawn) [16fv, 6-[2-(1-Methyl-1H-pyrazol-3-yl)-pyrrolidine-1-carbonyl]-3,4-dihydro-1H-pyrrolo[2,1-c][1,4]oxazine-8-carboxylic acid ((R)-1-phenyl-propyl)-amide]
0.6	CC[C@@H](NC(=O)c1cc(C(=O)Nc2c(C)noc2C)n2c1COCC2)c1ccccc1 [16hg, 3,4-Dihydro-1H-pyrrolo[2,1-c][1,4]oxazine-6,8-dicarboxylic acid 6-[(3,5-dimethyl-isoxazol-4-yl)-amide] 8-[((R)-1-phenyl-propyl)-amide]]
0.14	CC[C@@H](NC(=O)c1cc(C(=O)N2CCC[C@@H]2C)n2c1COCC2)c1ccc(C(F)(F)F)nc1C [16cb, 6-((S)-2-Methyl-pyrrolidine-1-carbonyl)-3,4-dihydro-1H-pyrrolo[2,1-c][1,4]oxazine-8-carboxylic acid [(R)-1-(2-methyl-6-trifluoromethyl-pyridin-3-yl)-propyl]-amide]
0.21	CC[C@@H](NC(=O)c1cc(C(=O)N2CCC[C@@H]2C)n2c1COCC2)c1ccnc(C(F)(F)F)c1F [16bu, 6-((S)-2-Methyl-pyrrolidine-1-carbonyl)-3,4-dihydro-1H-pyrrolo[2,1-c][1,4]oxazine-8-carboxylic acid [(R)-1-(3-fluoro-2-trifluoromethyl-pyridin-4-yl)-propyl]-amide]
0.065	CC[C@@H](NC(=O)c1cc(C(=O)N2CCC[C@@H]2C)n2c1COCC2)c1ccc(C(F)(F)F)nc1Cl [16cc, 6-((S)-2-Methyl-pyrrolidine-1-carbonyl)-3,4-dihydro-1H-pyrrolo[2,1-c][1,4]oxazine-8-carboxylic acid [(R)-1-(2-chloro-6-trifluoromethyl-pyridin-3-yl)-propyl]-amide]
0.04	CC[C@@H](NC(=O)c1cc(C(=O)N2CCC[C@@H]2C)n2c1COCC2)c1cc(F)ccc1Cl [16w, 6-((S)-2-Methyl-pyrrolidine-1-carbonyl)-3,4-dihydro-1H-pyrrolo[2,1-c][1,4]oxazine-8-carboxylic acid [(R)-1-(2-chloro-5-fluoro-phenyl)-propyl]-amide]
0.28	CC[C@@H](NC(=O)c1cc(C(=O)N2CCC[C@@H]2C)n2c1COCC2)c1ccc(OC(F)(F)F)cc1 [16aw, 6-((S)-Methyl-pyrrolidine-1-carbonyl)3,4-dihydro-1H-pyrrolo[2,1-c][1,4]oxazine-8-carboxylic acid [(R)-1-(4-trifluoromethoxy-phenyl)-propyl]-amide]
